Marks after values point to notes of the source that are not given here. Where a SMILES comes first, the peptide text is derived from it. [ ]: non-standard residue; d: D form. dPhe(4-Cl) = N[C@H](Cc1ccc(Cl)cc1)C(=O)O; d2Nal = N[C@H](Cc1ccc2ccccc2c1)C(=O)O; dCit = NC(=O)NCCC[C@@H](N)C(=O)O; d3Pal = N[C@H](Cc1cccnc1)C(=O)O
Experiments:
interleukin-1β = test: Example 2: serum cytokine, multiplex high-sensitivity assay, interleukin-1β; type: in vivo, human; settings: high gonadotropin patients
Description: (§1) The protocol-specified primary and secondary intention-to-treat endpoints of the original AGRA trial were analyzed in these post hoc analyses. The primary endpoint was the baseline-adjusted between-group difference in DAS28-CRP (Wells et al., supra) by day 5b. Secondary endpoints included the baseline-adjusted between-group difference in cytokines, proportions of patients achieving at least a 20%, 50%, and 70% improvement on the ACR scale (Felson D T, et al., Arthritis Rheum 1995; 38:727-35), categorical DAS28-CRP (European League Against […] [EULAR]) responses (Wells et al., supra; van Gestel A M, et al., Arthritis Rheum 1996; 39:34-40), DAS28-CRP≦3.2 (Wells et al., supra), DAS28-CRP<2.6 (Wells et al., supra), and the incidence of adverse events. Protocol-specified DAS28 outcomes were preferentially CRP-based rather than erythrocyte sedimentation rate (ESR)-based, as CRP usually changes before ESR. […] Multiplex technology (Luminex Inc., Austin, Tex.) measured these serum cytokines using high-sensitivity assays (sensitivities <0.5 pg/mL, allowing the detection of very low concentrations of cytokines) and identical lots of critical reagent of negligible cross-reactivity <2%, according to manufacturers' instructions (Bio-Rad, Hercules, Calif.). […] To enable intention-to-treat analyses with all patients N=53, non-detectable values were set at the lower limit of detection for cytokines, as is common for CRP values.
(§2) The original power calculation is previously reported (Kass A S, et al., Scand J Rheumatol Epub ahead of print 1 Nov. 2013). Baseline-adjusted between-group differences for all continuous endpoints were assessed with the use of analysis-of-covariance using outcome measurements at predefined time points as response variables, and treatment and baseline measurements as covariates. Dichotomous endpoints were compared with the Pearson chi-square test or Suissa-Shuster exact unconditional test, depending on expected-value distribution (Lydersen S, et al., Stat Med 2009; 28:1159-75). No adjustments for multiple analyses were made, owing to highly correlated endpoints. Due to skewed distributions, between-group changes of natural log-transformed cytokine levels from baseline were compared.

TNF-α [1] = test: Example 2: serum cytokine, multiplex high-sensitivity assay, TNF-α; type: in vivo, human; settings: high gonadotropin patients
Description: as §1
as §2, with “No adjustments for multiple analyses were made, owing to highly correlated endpoints. Due to skewed distributions, between-group changes of natural log-transformed cytokine levels from baseline were compared.” left out

CRP, ESR = settings: all patients
Description: Ethical committee approval was obtained. A blinded independent committee, the Oslo University Hospital Data Monitoring Committee, regularly reviewed source documents against case record forms. Safety and efficacy visits, with blood sampling, were between 0730 and 0930 h on days 1 (baseline), 2, 3, 4, 5 (visit 5a), 10, and 15. There was an additional visit (visit 5b) between 1930 and 2130 h when maximum GnRH suppression was anticipated. Using computer-generated allocation, patients were randomly assigned 1:1 to cetrorelix (5 mg/day s.c. on days 1 and 2, 3 mg/day on days 3-5) or corresponding volumes of placebo. The cetrorelix doses were chosen to achieve rapid reductions in GnRH, LH, a surrogate marker for GnRH, and FSH. TNF-α was measured using multiplex technology with a high sensitivity (0.5 pg/mL) assay.
The predefined primary end-point was the baseline adjusted between-group difference in DAS28-CRP by visit 5b. Predefined secondary end-points included the baseline adjusted between-group difference inTNF-α, ACR20/50/70 responses, European League Against Rheumatism (EULAR) responses, DAS28-CRP <2.6 and ≦3.2, and adverse events. Continuous end-points were assessed with regression using day 5 as the response variable, and treatment and baseline measurement as covariates (ANCOVA). No adjustments for multiple analyses were made because of the highly correlated variables. Statistical tests were twosided (α ¼0.05) using Stat12/StatXact9, and performed by an offsite statistician who received the locked database from the blinded investigators, and the allocation key from the offsite central office.

TNF-α [2] = test: Example 1: serum TNF-α, high sensitivity bead-based fluorescence immunoassay; type: in vivo, human; settings: by day 5
Description: (§3) Ethical committee approval was obtained. […] Safety and efficacy visits, with blood sampling, were between 0730 and 0930 h on days 1 (baseline), 2, 3, 4, 5 (visit 5a), 10, and 15. There was an additional visit (visit 5b) between 1930 and 2130 h when maximum GnRH suppression was anticipated.
TNF-α was measured using a high sensitivity bead-based fluorescence immunoassay (Luminex Inc., Austin, Tex. USA) with multiplex technology according to the manufacturers' instructions. […] Samples were assayed together within the same microplate on the same day. The assay sensitivity for TNF-α was 0.5 pg/mL. Due to its skewed distribution, the statistical analysis gives both the log and relative change (%) of TNF-α from baseline.

RA patients = test: Example 1: adverse events; type: in vivo, human
Description: as §3
Predefined secondary end-points included the baseline adjusted between-group difference inTNF-α, ACR20/50/70 responses, European League Against Rheumatism (EULAR) responses, DAS28-CRP <2.6 and ≦3.2, and adverse events.
The Newcombe hybrid score interval was used to estimate 95% confidence intervals (CI) for the difference between proportions (Fagerland M W, et al., Stat Methods Med Res 2011). No adjustments for multiple analyses were made, owing to the highly correlated variables. All clinical, biochemical, and safety data were analyzed by an intention-to-treat analysis. Only predefined endpoints are presented. The intention-to-treat population was predefined in the protocol as all randomized patients who received any injections of study drug. Missing values were <1% and could, as predefined, be imputed with the last observation carried forward. The assumptions of normality needed for analyses were approximately valid. The Spearman rank correlation coefficient (Spearman's rho) was used to estimate the association between pairs of continuous variables.

## CC(=O)N[C@H](Cc1ccc2ccccc2c1)C(=O)N[C@H](Cc1ccc(Cl)cc1)C(=O)N[C@H](Cc1cccnc1)C(=O)N[C@@H](CO)C(=O)N[C@@H](Cc1ccc(O)cc1)C(=O)N[C@H](CCCNC(N)=O)C(=O)N[C@@H](CC(C)C)C(=O)N[C@@H](CCCNC(=N)N)C(=O)N1CCC[C@H]1C(=O)N[C@H](C)C(N)=O [cetrorelix] (Ac-[d2Nal][dPhe(4-Cl)][d3Pal]SY[dCit]LRP[dA]-NH2)
interleukin-1β; N = 27, mean ± SD
  IL-1β level, Final Day 15: −1.68 ± 1.4 log pg/mL
interleukin-1β; N = 27, placebo +0.10
  IL-1β Change from baseline by day 15: −0.20 log pg/mL
interleukin-1β; by day 15, P=0.034
  Interleukin-1β change compared with placebo: significantly decreased
interleukin-1β; day 15, 95% CI (0.02, 0.59), P < 0.05
  IL-1β Baseline-Adjusted Between-Group Difference: 0.30‡ log pg/mL
TNF-α [1]; N = 27, mean ± SD
  TNF-α level, Final Day 15: 0.01 ± 2.1 log pg/mL
TNF-α [1]; N = 27, placebo +0.02
  TNF-α Change from baseline by day 15: −0.45 log pg/mL
TNF-α [1]; day 15, 95% CI (0.01, 0.96), P < 0.05
  TNF-α Baseline-Adjusted Between-Group Difference: 0.49‡ log pg/mL
CRP, ESR; by day 15
  CRP levels after withdrawal of treatment: remained lowered
CRP, ESR; day 5, p 0.060
  CRP reduction compared to placebo: Non-significant reductions
CRP, ESR; day 15, p 0.051
  ESR reduction compared to placebo: Non-significant reductions
TNF-α [2]; all patients with detectable TNF-α, placebo −0.02
  TNF-α reduction (change from baseline): −0.58 log pg/mL
TNF-α [2]; 95% CI 0.08-1.01, p 0.023
  TNF-α between group difference vs placebo: 0.55 log pg/mL
TNF-α [2]; placebo 11.1%
  TNF-α percentage change from baseline: −28.2%
RA patients; N = 48
  Adverse effects: Headache: 2 (4.2) n (percent)
  Adverse effects: Hot flushes: 2 (4.2) n (percent)
  Adverse effects: Injection site discomfort: 3 (6.3) n (percent)
  Adverse effects: Menstrual spotting: 2 (4.2) n (percent)
  Adverse effects: Nasopharyngitis: 1 (2.1) n (percent)
  Adverse effects: Nausea: 0 n (percent)
  Adverse effects: Toothache: 0 n (percent)
  Adverse effects: Urinary tract infection: 1 (2.1) n (percent)
RA patients; all patients
  serious side-effects: no serious side-effects were observed

— US9618507B2, “Methods of treating rheumatoid arthritis” (Betanien Hospital, priority 2014, dated 2017)
